Data on 23 compounds can be found in patent US20220227761A1, “OXOACRIDINYL ACETIC ACID DERIVATIVES AND METHODS OF USE” (STINGTHERA, INC., priority 2019, published 2022).

A value given as a limit tells only on which side of the number the result lay.

Assay [1] relates to STING protein; IRF/IFN signaling in THP-1 R232 cells. Put plainly: Cell based reporter assay, THP-1 R232 IRF-luc. The following applies: Homo sapiens, THP1-dual-KI R232 cells, IRF luciferase reporter; for Emax: maximum measured activity, read-out: THP 1-dual-KI R232_IRF(Luciferase)_Activity Maximum measured (%); for IC50: read-out: THP 1-dual-KI R232_IRF(Luciferase) IC50. The source says:
Cell reporter assays were developed to measure the ability of compounds of the application to activate the STING protein and activate both IRF/IFN and the NFkB signaling pathways in the myeloid derived cell line THP-1, which is commercially available from several suppliers. Briefly, THP-1 monocytes were transfected and selected for stable integration of 2 reporter constructs. Clones incorporating stably integrated vectors were further selected by antibiotic resistance to blastocidin and zeocin. The reporter constructs included: (1) firefly luciferase reporter gene under the control of an ISG54 promoter fused to five interferon (IFN)-stimulated response elements to measure IRF transcription factor binding activity and (2) secreted embryonic alkaline phosphatase reporter gene under transcription control of an IFN-beta minimal promoter fused to 5 copies of the NFkB consensus transcriptional response element and 3 copies of the c-Rel binding site.
The resulting THP-1 cell line was further modified to incorporate 3 amino acid point mutations (H71R A230G Q293R). This modification of the native TMEM173 gene in THP-1 cells (HAQ) was designed to produce a cell reporter that expressed the most common allelic variant in the human population (THP-1 R232, available from InvivoGen). Alternatively, the TMEM173 gene was knocked out to provide a congenic control to counter-screen for compound activation that was independent of the STING protein (THP-1 STING KO).
Once cell lines were established, reporter assay protocols were developed and optimized to screen small molecule compounds for agonist activity. Assay optimization for efficacy and Z′ value included titration of the following parameters:
• 1. Cell pre-activation with PMA • 2. Cell seeding density • 3. DMSO tolerance • 4. Media selection • 5. FBS concentration • 6. Incubation time • 7. Co-Assessment of cell viability by CTG assay • 8. Appropriate HPE and ZPE controls • 9. Dose Response Titration
• 1. No pre-activation with PMA • 2. 5×10^4 cells/well in 96 well plate format • 3. <0.5% DMSO • 4. RPMI 1640+2.5 mg/ml glucose • 5. 10% FBS • 6. 14-18 hr incubation • 7. Cell Titer Glo reagent (Promega) following supernatant removal • 8. […] 8 point, 2 fold, duplicate starting at 150 μM
For orientation: Reporter assays use an easily measured gene product as a stand-in for the process of interest.

Assay [2] concerns the target human STING protein (140-379), WT (Homo sapiens, UniProt Q86WV6, H232R). Nature of the assay: Radiometric filtration binding competition assay (FBA), hSTING-WT. The following applies: WT-hSWAT IC50 (μM), WT_FBA_HIS-SUMO-hSWAT; wild-type human STING; competition with [H3] 2′3′cGAMP.
The target of assay [3] is T1, mouse STING protein (139-328) (Mus musculus, UniProt Q3TBT3).
T1 sequence (Q3TBT3 139-328): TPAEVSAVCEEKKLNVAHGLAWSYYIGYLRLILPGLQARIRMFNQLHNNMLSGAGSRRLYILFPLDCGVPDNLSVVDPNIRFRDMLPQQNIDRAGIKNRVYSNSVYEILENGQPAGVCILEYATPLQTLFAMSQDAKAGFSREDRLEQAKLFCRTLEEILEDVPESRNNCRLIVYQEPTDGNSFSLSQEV
Put plainly: Radiometric filtration binding competition assay (FBA), mSTING.

Another assay deals with hSTING-R232 (aa140-379) (Homo sapiens, UniProt Q86WV6, H232R). Nature of the assay: STING differential scanning fluorimetry (DSF) assay, hSTING WT. The following applies: shift in melting temperature apo vs ligand-bound. Background: DSF heats the sample and reads unfolding from a dye or from intrinsic fluorescence.
hSTING-R232 (aa140-379), sequence (Q86WV6 140-379 H232R): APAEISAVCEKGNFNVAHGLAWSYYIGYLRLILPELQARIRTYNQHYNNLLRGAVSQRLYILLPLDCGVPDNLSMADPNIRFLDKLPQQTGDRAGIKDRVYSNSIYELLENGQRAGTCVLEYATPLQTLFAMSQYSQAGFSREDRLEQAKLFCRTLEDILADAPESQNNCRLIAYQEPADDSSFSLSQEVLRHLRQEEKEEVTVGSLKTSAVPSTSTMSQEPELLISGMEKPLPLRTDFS

human STING protein (140-379), WT, sequence (Q86WV6 140-379 H232R): as above
Method for hSTING-R232 (aa140-379): A STING DSF assay was performed to determine protein thermostability shift in response to small molecule ligand binding. A STING thermnostability shift assay based on differential scanning fluorimetry was used to measure (1) the net shift in melting temperature (ΔTm) between the apo and ligand-bound states of the STING protein and (2) the concentration of the thermal denaturation transition (EC50) as a surrogate measure of binding affinity (Kd). […] Protein in assay buffer was transferred to a 384 well plate and incubated with the hydrophobic fluorescent dye SYBR Orange. A temperature ramp was applied to the plate and the resulting dye fluorescence was plotted as a function of temperature. The first derivative of this function (dF/dT) was then used to extrapolate the melting temperature of the protein at various concentrations of compound and determine the thermal denaturation profile of a protein/compound complex.
5 μM purified Target STING Protein • 3. 8 μM Sypro Orange Dye • 4. Buffer: 100 mM NaCl, 30 mM HEPES, pH 7.5 • 5. Thermal Ramp: 0.5° C./min • 6. <1% DMSO • 7. 11 point, 2 fold dilution, duplicate, 300 μM high concentrations • 8.

Broadly, the IC50 is the concentration that inhibits the measured activity by half. Regarding `CN(C)c1c(Cl)ccc2c(=O)c3ccc(C(C)(C)C)cc3n(CC(=O)NS(C)(=O)=O)c12` [Compound 57], in assay [1], the Emax is more than 50%. In addition, the half-inhibitory concentration (IC50) was less than 50 µM in assay [1], less than 20 µM in assay [2] and less than 20 µM in assay [3]. Further, the “WT_DSF_hSWAT Tm Shift (° C.)” value at hSTING-R232 (aa140-379) is “D (“D” >7° C.)”.

`Cc1ccccc1-c1c(Cl)ccc2c(=O)c3ccccc3n(CC(=O)O)c12` [Compound 59]: the Emax in assay [1] is 5 to 25%. Moreover, the values for the IC50 in assay [1], in assay [2] and in assay [3] were 50 to 100 µM, 20 to 100 µM and more than 300 µM, respectively. For the same compound, the “WT_DSF_hSWAT Tm Shift (° C.)” value at hSTING-R232 (aa140-379) is reported as “B (“B” = 0-2° C.)”.

Regarding `O=C(O)Cn1c2ccccc2c(=O)c2ccc(Cl)c(-c3cccs3)c21` [Compound 62], the Emax in assay [1] was in the range of 25 to 50%. Besides, the IC50 in assay [1] was more than 150 µM; in assay [2], 20 to 100 µM; in assay [3] it was 20 to 100 µM. For the same compound, the “WT_DSF_hSWAT Tm Shift (° C.)” value at hSTING-R232 (aa140-379) was “D (“D” >7° C.)”.

On to `O=C(O)Cn1c2ccccc2c(=O)c2ccc(Cl)c(O)c21` [Compound 63], for which the Emax in assay [1] is less than 5%. Moreover, the half-inhibitory concentration (IC50) in assay [1] is more than 150 µM; in assay [2], 20 to 100 µM. For the same compound, the “WT_DSF_hSWAT Tm Shift (° C.)” value on hSTING-R232 (aa140-379) is reported as “B (“B” = 0-2° C.)”.

On to `Cc1ccc2c(=O)c3ccc(Cl)c(N4CCCC4)c3n(CC(=O)O)c2c1` [Compound 64], for which the Emax in assay [1] is more than 50%. Further, the IC50 is less than 50 µM in assay [1], 20 to 100 µM in assay [2] and 20 to 100 µM in assay [3]. Moreover, at hSTING-R232 (aa140-379), the “WT_DSF_hSWAT Tm Shift (° C.)” value is recorded as “D (“D” >7° C.)”.

In the case of `C=C(C)c1ccc2c(=O)c3ccc(Cl)c(OC)c3n(CC(=O)O)c2c1` [Compound 65], in assay [1], the Emax was more than 50% and the IC50 is less than 50 µM. Further, in assay [2], the IC50 is 20 to 100 µM. The “WT_DSF_hSWAT Tm Shift (° C.)” value on hSTING-R232 (aa140-379) is “D (“D” >7° C.)”.

Regarding `COc1c(Cl)ccc2c(=O)c3ccc(F)cc3n(CC(=O)O)c12` [Compound 67], the results for the IC50 in assay [1] and in assay [2] were more than 150 µM and more than 300 µM, respectively. The “WT_DSF_hSWAT Tm Shift (° C.)” value on hSTING-R232 (aa140-379) was “C (“C” = 2-7° C.)”.

As to `CCNc1ccc2c(=O)c3ccc(Cl)c(OC)c3n(CC(=O)O)c2c1` [Compound 68], in assay [1], the Emax is more than 50% and the IC50 is 50 to 100 µM. In addition, the IC50 in assay [2] was 20 to 100 µM. The “WT_DSF_hSWAT Tm Shift (° C.)” value at hSTING-R232 (aa140-379) is given as “C (“C” = 2-7° C.)”.

With `CN(C)c1c(Cl)ccc2c(=O)c3ccc(-c4cc[nH]c(=O)c4)cc3n(CC(=O)O)c12` [Compound 69], in assay [1], the Emax was more than 50% and the IC50 is less than 50 µM. In assay [2], this compound showed an IC50 of less than 20 µM. The “WT_DSF_hSWAT Tm Shift (° C.)” value at hSTING-R232 (aa140-379) was “D (“D” >7° C.)”.

On to `CN(C)c1c(Cl)ccc2c(=O)c3ccc(-c4cnccn4)cc3n(CC(=O)O)c12` [Compound 70], for which, in assay [1], the Emax was more than 50% and the IC50 is less than 50 µM. In assay [2], the half-inhibitory concentration (IC50) was less than 20 µM. For the same compound, the “WT_DSF_hSWAT Tm Shift (° C.)” value at hSTING-R232 (aa140-379) was “C (“C” = 2-7° C.)”.

For `CN(C)c1c(Cl)ccc2c(=O)c3ccc(-c4ccnnc4)cc3n(CC(=O)O)c12` [Compound 71], the Emax in assay [1] is more than 50%. The figures for the IC50 in assay [1] and in assay [2] were less than 50 µM and 20 to 100 µM, respectively. In addition, the “WT_DSF_hSWAT Tm Shift (° C.)” value on hSTING-R232 (aa140-379) is recorded as “D (“D” >7° C.)”.

For `CN(C)c1c(Cl)ccc2c(=O)c3cc(Cl)c(Nc4c(F)cccc4F)cc3n(CC(=O)O)c12` [Compound 75], in assay [1], the Emax was more than 50% and the IC50 was less than 50 µM. In addition, in assay [2], the IC50 is less than 20 µM. Also, the “WT_DSF_hSWAT Tm Shift (° C.)” value at hSTING-R232 (aa140-379) is “D (“D” >7° C.)”.

As to `CN(C)c1c(Cl)ccc2c1N(CC(=O)O)c1cc(Nc3ccccc3F)ccc1N2C` [Compound 78], the Emax in assay [1] is more than 50%. Besides, the IC50 in assay [1] is less than 50 µM; in assay [2], less than 20 µM. The “WT_DSF_hSWAT Tm Shift (° C.)” value on hSTING-R232 (aa140-379) was “D (“D” >7° C.)”.

In the case of `CN(C)c1c(Cl)ccc2c(=O)c3ccc(Nc4cccnc4)cc3n(CC(=O)O)c12` [Compound 80], in assay [1], the Emax is more than 50% and the IC50 was less than 50 µM. In assay [2], the IC50 is less than 20 µM. Moreover, the “WT_DSF_hSWAT Tm Shift (° C.)” value on hSTING-R232 (aa140-379) is “D (“D” >7° C.)”.

Consider `CN(C)c1c(Cl)ccc2c(=O)c3ccc(Nc4ccncc4)cc3n(CC(=O)O)c12` [Compound 81], for which, in assay [1], the Emax is more than 50%. Also, the IC50 in assay [1] is less than 50 µM; in assay [2] it was less than 20 µM. Besides, the “WT_DSF_hSWAT Tm Shift (° C.)” value on hSTING-R232 (aa140-379) is reported as “D (“D” >7° C.)”.

`CN(C)c1c(Cl)ccc2c(=O)c3ccc(C4(C#N)CC4)cc3n(CC(=O)O)c12` [Compound 84]: in assay [1], the Emax is more than 50%. The IC50 was less than 50 µM in assay [1] and 20 to 100 µM in assay [2]. At hSTING-R232 (aa140-379), the “WT_DSF_hSWAT Tm Shift (° C.)” value is given as “D (“D” >7° C.)”.

As to `CC(C)Nc1cc2c(cc1Cl)c(=O)c1ccc(Cl)c(N(C)C)c1n2CC(=O)O` [Compound 86], in assay [1], the Emax is more than 50% and the IC50 is less than 50 µM. Also, in assay [2], the IC50 was less than 20 µM. For the same compound, the “WT_DSF_hSWAT Tm Shift (° C.)” value at hSTING-R232 (aa140-379) was “D (“D” >7° C.)”.

Consider `CN(C)c1c(Cl)ccc2c(=O)c3cc(Cl)c(C(C)(C)C#N)cc3n(CC(=O)O)c12` [Compound 87], for which, in assay [1], the Emax was more than 50% and the IC50 is less than 50 µM. The IC50 in assay [2] was less than 20 µM. On hSTING-R232 (aa140-379), the “WT_DSF_hSWAT Tm Shift (° C.)” value is “D (“D” >7° C.)”.

For the compound `CN(C)c1c(Cl)ccc2c(=O)c3cc(Cl)c(C(C)(C)C)cc3n(CC(=O)O)c12` [Compound 88], the Emax in assay [1] was more than 50%. Further, the IC50 in assay [1] was less than 50 µM; in assay [2], less than 20 µM. Also, the “WT_DSF_hSWAT Tm Shift (° C.)” value at hSTING-R232 (aa140-379) was “D (“D” >7° C.)”.

With `C=Cc1cc2c(cc1Cl)c(=O)c1ccc(Cl)c(N(C)C)c1n2CC(=O)O` [Compound 89], in assay [1], the Emax was more than 50% and the IC50 is less than 50 µM. In assay [2], this compound returned an IC50 of less than 20 µM. At hSTING-R232 (aa140-379), the “WT_DSF_hSWAT Tm Shift (° C.)” value is listed as “D (“D” >7° C.)”.

Consider `COc1ccccc1Nc1ccc2c(=O)c3ccc(Cl)c(N(C)C)c3n(CC(=O)O)c2c1` [Compound 90], for which, in assay [1], the Emax is more than 50% and the IC50 is less than 50 µM. The same compound registered an IC50 in assay [2] of less than 20 µM. Moreover, the “WT_DSF_hSWAT Tm Shift (° C.)” value on hSTING-R232 (aa140-379) is “D (“D” >7° C.)”.

For the compound `CN(C)c1c(Cl)ccc2c(=O)c3cc(Cl)c(Nc4ccccc4)cc3n(CC(=O)O)c12` [Compound 91], in assay [1], the Emax was more than 50% and the IC50 was less than 50 µM. For the same compound, the IC50 in assay [2] is less than 20 µM. The “WT_DSF_hSWAT Tm Shift (° C.)” value on hSTING-R232 (aa140-379) was “D (“D” >7° C.)”.

With `CN(C)c1c(Cl)ccc2c(=O)c3ccc(Nc4c(F)cccc4F)cc3n(CC(=O)O)c12` [Compound 92], in assay [1], the Emax is more than 50%. The IC50 is less than 50 µM in assay [1] and less than 20 µM in assay [2]. At hSTING-R232 (aa140-379), the “WT_DSF_hSWAT Tm Shift (° C.)” value is given as “D (“D” >7° C.)”.
